Assay results from patent US8952024B2, “Herbicidal pyrimidone derivatives” (E I du Pont de Nemours and Company, priority 2009, dated 2015).
Where two headings read alike, the source gives them in different places.

Key:
Format in all cases: in vivo
corn (Zea mays) = assay: Test A pre-/postemergence plant response
Procedure, shortened: (§1)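 Injury scores (0, no effect; 100, complete control) come from visual comparison with untreated controls roughly ten days post-treatment. Test chemicals in a surfactant-containing non-phytotoxic solvent were applied as a directed soil spray preemergence and to one- to two-leaf seedlings postemergence.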

[1] = tested on: large crabgrass (Digitaria sanguinalis); assay: Test A pre-/postemergence plant response; conditions: for pest or weed control at 125 g/ha / pest or weed control at 500 g/ha: Digitaria sanguinalis, 240 h
Procedure, shortened: as §1

[2] = tested on: wheat (Triticum aestivum); assay: Test A pre-/postemergence plant response; conditions: for plant injury at 125 g/ha / plant injury at 500 g/ha: Triticum aestivum, 240 h
Procedure, shortened: as §1

[3] = tested on: morningglory (Ipomoea spp.); assay: Test A pre-/postemergence plant response; conditions: for pest or weed control at 125 g/ha: read-out: Plant response rating, Morningglory
Procedure, shortened: as §1

[4] = tested on: pigweed (Amaranthus retroflexus); assay: Test A pre-/postemergence plant response; conditions: for pest or weed control at 125 g/ha / pest or weed control at 500 g/ha: Amaranthus retroflexus, 240 h
Procedure, shortened: as §1

[5] = tested on: giant foxtail (Setaria faberii); assay: Test A pre-/postemergence plant response; conditions: for pest or weed control at 125 g/ha / pest or weed control at 500 g/ha: Setaria faberi, 240 h
Procedure, shortened: as §1

[6] = tested on: velvetleaf (Abutilon theophrasti); assay: Test A pre-/postemergence plant response; conditions: for pest or weed control at 125 g/ha / pest or weed control at 500 g/ha: Abutilon theophrasti, 240 h
Procedure, shortened: as §1

[7] = tested on: barnyardgrass (Echinochloa crus-galli); assay: Test A pre-/postemergence plant response; conditions: for pest or weed control at 125 g/ha / pest or weed control at 500 g/ha: Echinochloa crus-galli, 240 h; for pest or weed control at 125 g/ha / Plant response rating, Barnyardgrass: 125 g ai/ha
Procedure, shortened: as §1

[8] = tested on: wheat (Triticum aestivum); assay: Test B pre-/postemergence plant response; conditions: Postemergence
Description: (§2) Seeds of plant species selected from blackgrass (Alopecurus myosuroides), downy bromegrass (Bromus tectorum), green foxtail (Setaria viridis), Italian ryegrass (Lolium multiflorum), wheat (Triticum aestivum), wild oat (Avena fatua), deadnettle (henbit deadnettle, Lamium amplexicaule), galium (catchweed bedstraw, Galium aparine), bermudagrass (Cynodon dactylon), Surinam grass (Brachiaria decumbens), cocklebur (Xanthium strumarium), corn (Zea mays), large crabgrass (Digitaria sanguinalis), woolly cupgrass (Eriochloa villosa), giant foxtail (Setaria faberii), goosegrass (Eleusine indica), johnsongrass (Sorghum halepense), kochia (Kochia scoparia), lambsquarters (Chenopodium album), morningglory (Ipomoea coccinea), nightshade (eastern black nightshade, Solanum ptycanthum), yellow nutsedge (Cyperus esculentus), pigweed (Amaranthus retroflexus), ragweed (common ragweed, Ambrosia elatior), Russian thistle (Salsola kali), soybean (Glycine max), sunflower (common oilseed sunflower, Helianthus annuus) and velvetleaf (Abutilon theophrasti) were planted into a blend of loam soil and sand and treated preemergence with test compounds formulated in a non-phytotoxic solvent mixture which included a surfactant.
(§3) At the same time, plants selected from these crop and weed species and also winter barley (Hordeum vulgare), canarygrass (Phalaris minor), chickweed (Stellaria media) and windgrass (Apera spica-venti) were planted in pots containing Redi-Earth® planting medium (Scotts Company, 14111 Scottslawn Road, Marysville, Ohio 43041) comprising spaghnum peat moss, vermiculite, wetting agent and starter nutrients and treated with postemergence applications of some of the test chemicals formulated in the same manner. Plants ranged in height from 2 to 18 cm (1- to 4-leaf stage) for postemergence treatments.
(§4) Treated plants and controls were maintained in a greenhouse for 13 to 15 days, after which time all treated plants were visually evaluated and compared to controls. Plant response ratings, summarized in Table B, are based on a scale of 0 to 100 where 0 is no effect and 100 is complete control. A dash (-) response means no test result.

soybean (Glycine max) = assay: Test B pre-/postemergence plant response; conditions: Postemergence
Description: as §2, §3, §4

[9] = 31 g ai/ha, 0 to 100 scale (0 no effect, 100 complete control)
[10] = 125 g ai/ha, scale 0 (no effect) to 100 (complete control), 13 to 15 days
[11] = 250 g ai/ha, scale 0 to 100 (0 no effect, 100 complete control), 13 to 15 days
[12] = 62 g ai/ha, scale 0 to 100 (0 no effect, 100 complete control)
[13] = Postemergence, 125 g ai/ha, 0 to 100 scale where 0 is no effect and 100 is complete control
[14] = Postemergence, 500 g ai/ha, visual injury, 0 to 100 scale (0 no effect, 100 complete control), approx. ten days
[15] = Preemergence, 125 g ai/ha, 0 to 100 scale, 0 = no effect, 100 = complete control
[16] = Preemergence, 500 g ai/ha, 0 to 100 scale, 0 = no effect, 100 = complete control

Structure (SMILES): O=C(c1cnoc1C1CC1)c1cnc(-c2ccccc2)n(-c2ccccc2)c1=O [Compound 223, 5-[(5-cyclopropyl-4-isoxazolyl)-carbonyl]-2,3-diphenyl-4(3H)-pyrimidinone]
- Corn plant response rating (crop injury, 0 = no effect, 100 = complete kill) at 125 g/ha (corn (Zea mays); Zea mays, post-emergence, 240 h, Postemergence, 125 g ai/ha, 0 to 100 scale where 0 is no effect and 100 is complete control): 0%
- plant injury at 500 g/ha (corn (Zea mays); Zea mays, post-emergence, 240 h, Postemergence, 500 g ai/ha, visual injury, 0 to 100 scale (0 no effect, 100 complete control), approx. ten days, read-out: Corn plant response rating): 20%
- Corn plant response rating (crop injury, 0 = no effect, 100 = complete kill) at 125 g/ha (corn (Zea mays); Zea mays, pre-emergence, 240 h, Preemergence, 125 g ai/ha, 0 to 100 scale, 0 = no effect, 100 = complete control): 0%
- Corn plant response rating (crop injury, 0 = no effect, 100 = complete kill) at 500 g/ha (corn (Zea mays); Zea mays, pre-emergence, 240 h, Preemergence, 500 g ai/ha, 0 to 100 scale, 0 = no effect, 100 = complete control): 0%
- pest or weed control at 125 g/ha ([1]; post-emergence, Postemergence, 125 g ai/ha, 0 to 100 scale where 0 is no effect and 100 is complete control, read-out: Plant response rating, Crabgrass, Large): 0%
- pest or weed control at 500 g/ha ([1]; post-emergence, Postemergence, 500 g ai/ha, visual injury, 0 to 100 scale (0 no effect, 100 complete control), approx. ten days, read-out: Crabgrass, Large plant response rating): 60%
- pest or weed control at 125 g/ha ([1]; pre-emergence, Preemergence, 125 g ai/ha, 0 to 100 scale, 0 = no effect, 100 = complete control, read-out: Plant response rating, Crabgrass, Large): 30%
- pest or weed control at 500 g/ha ([1]; pre-emergence, Preemergence, 500 g ai/ha, 0 to 100 scale, 0 = no effect, 100 = complete control, read-out: Plant response rating, Crabgrass, Large): 80%
- plant injury at 125 g/ha ([2]; post-emergence, Postemergence, 125 g ai/ha, 0 to 100 scale where 0 is no effect and 100 is complete control, read-out: Plant response rating, Wheat): 0%
- plant injury at 500 g/ha ([2]; post-emergence, Postemergence, 500 g ai/ha, visual injury, 0 to 100 scale (0 no effect, 100 complete control), approx. ten days, read-out: Wheat plant response rating): 0%
- plant injury at 125 g/ha ([2]; pre-emergence, Preemergence, 125 g ai/ha, 0 to 100 scale, 0 = no effect, 100 = complete control, read-out: Plant response rating, Wheat): 0%
- plant injury at 500 g/ha ([2]; pre-emergence, Preemergence, 500 g ai/ha, 0 to 100 scale, 0 = no effect, 100 = complete control, read-out: Plant response rating, Wheat): 0%
- pest or weed control at 125 g/ha ([3]; Ipomoea, post-emergence, 240 h, Postemergence, 125 g ai/ha, 0 to 100 scale where 0 is no effect and 100 is complete control): 60%
- pest or weed control at 500 g/ha ([3]; Ipomoea, post-emergence, 240 h, Postemergence, 500 g ai/ha, visual injury, 0 to 100 scale (0 no effect, 100 complete control), approx. ten days, read-out: Morningglory plant response rating): 80%
- pest or weed control at 125 g/ha ([3]; Ipomoea, pre-emergence, 240 h, Preemergence, 125 g ai/ha, 0 to 100 scale, 0 = no effect, 100 = complete control): 10%
- pest or weed control at 125 g/ha ([4]; post-emergence, Postemergence, 125 g ai/ha, 0 to 100 scale where 0 is no effect and 100 is complete control, read-out: Plant response rating, Pigweed): 50%
- pest or weed control at 500 g/ha ([4]; post-emergence, Postemergence, 500 g ai/ha, visual injury, 0 to 100 scale (0 no effect, 100 complete control), approx. ten days, read-out: Pigweed plant response rating): 70%
- pest or weed control at 125 g/ha ([4]; pre-emergence, Preemergence, 125 g ai/ha, 0 to 100 scale, 0 = no effect, 100 = complete control, read-out: Plant response rating, Pigweed): 60%
- pest or weed control at 500 g/ha ([4]; pre-emergence, Preemergence, 500 g ai/ha, 0 to 100 scale, 0 = no effect, 100 = complete control, read-out: Plant response rating, Pigweed): 90%
- pest or weed control at 125 g/ha ([5]; post-emergence, Postemergence, 125 g ai/ha, 0 to 100 scale where 0 is no effect and 100 is complete control, read-out: Plant response rating, Foxtail, Giant): 0%
- pest or weed control at 500 g/ha ([5]; post-emergence, Postemergence, 500 g ai/ha, visual injury, 0 to 100 scale (0 no effect, 100 complete control), approx. ten days, read-out: Foxtail, Giant plant response rating): 70%
- pest or weed control at 125 g/ha ([5]; pre-emergence, Preemergence, 125 g ai/ha, 0 to 100 scale, 0 = no effect, 100 = complete control, read-out: Plant response rating, Foxtail, Giant): 30%
- pest or weed control at 500 g/ha ([5]; pre-emergence, Preemergence, 500 g ai/ha, 0 to 100 scale, 0 = no effect, 100 = complete control, read-out: Plant response rating, Foxtail, Giant): 90%
- pest or weed control at 125 g/ha ([6]; post-emergence, Postemergence, 125 g ai/ha, 0 to 100 scale where 0 is no effect and 100 is complete control, read-out: Plant response rating, Velvetleaf): 50%
- pest or weed control at 500 g/ha ([6]; post-emergence, Postemergence, 500 g ai/ha, visual injury, 0 to 100 scale (0 no effect, 100 complete control), approx. ten days, read-out: Velvetleaf plant response rating): 80%
- pest or weed control at 125 g/ha ([6]; pre-emergence, Preemergence, 125 g ai/ha, 0 to 100 scale, 0 = no effect, 100 = complete control, read-out: Plant response rating, Velvetleaf): 0%
- pest or weed control at 500 g/ha ([6]; pre-emergence, Preemergence, 500 g ai/ha, 0 to 100 scale, 0 = no effect, 100 = complete control, read-out: Plant response rating, Velvetleaf): 60%
- pest or weed control at 125 g/ha ([7]; post-emergence, Postemergence, 0 to 100 scale where 0 is no effect and 100 is complete control, read-out: Plant response rating, Barnyardgrass): 0%
- pest or weed control at 500 g/ha ([7]; post-emergence, Postemergence, 500 g ai/ha, visual injury, 0 to 100 scale (0 no effect, 100 complete control), approx. ten days, read-out: Barnyardgrass plant response rating): 50%
- pest or weed control at 125 g/ha ([7]; pre-emergence, Preemergence, 0 to 100 scale, 0 = no effect, 100 = complete control, read-out: Plant response rating, Barnyardgrass): 0%
- pest or weed control at 500 g/ha ([7]; pre-emergence, Preemergence, 500 g ai/ha, 0 to 100 scale, 0 = no effect, 100 = complete control, read-out: Plant response rating, Barnyardgrass): 70%

Structure (SMILES): CCCCn1c(-c2ccccc2)ncc(C(=O)C2=C(O)C3CCC(C3)C2=O)c1=O (stereo not shown) [Compound 240]
- Plant response rating, Wheat [8, 9]: 30
- Plant response rating, Wheat [8, 10]: 50
- Plant response rating, Wheat [8, 11]: 50
- Plant response rating, Wheat [8, 12]: 35
- Plant response rating, Soybean (soybean (Glycine max); [9]): 95
- Plant response rating, Soybean (soybean (Glycine max); [10]): 95
- Plant response rating, Soybean (soybean (Glycine max); [11]): 100
- Plant response rating, Soybean (soybean (Glycine max); [12]): 95
- Plant response rating, Corn (corn (Zea mays); [13]): 40
- Corn plant response rating (corn (Zea mays); [14]): 80
- Plant response rating, Corn (corn (Zea mays); [15]): 0
- Plant response rating, Corn (corn (Zea mays); [16]): 40
- Plant response rating, Crabgrass, Large [1, 13]: 90
- Crabgrass, Large plant response rating [1, 14]: 100
- Plant response rating, Crabgrass, Large [1, 15]: 50
- Plant response rating, Crabgrass, Large [1, 16]: 100
- Plant response rating, Wheat [2, 13]: 20
- Wheat plant response rating [2, 14]: 40
- Plant response rating, Wheat [2, 15]: 0
- Plant response rating, Wheat [2, 16]: 40
- Plant response rating, Morningglory [3, 13]: 100
- Morningglory plant response rating [3, 14]: 100
- Plant response rating, Morningglory [3, 15]: 0
- Plant response rating, Morningglory [3, 16]: 0
- Plant response rating, Pigweed [4, 13]: 90
- Pigweed plant response rating [4, 14]: 100
- Plant response rating, Pigweed [4, 15]: 20
- Plant response rating, Pigweed [4, 16]: 100
- Plant response rating, Foxtail, Giant [5, 13]: 90
- Foxtail, Giant plant response rating [5, 14]: 100
- Plant response rating, Foxtail, Giant [5, 15]: 40
- Plant response rating, Foxtail, Giant [5, 16]: 80
- Plant response rating, Velvetleaf [6, 13]: 100
- Velvetleaf plant response rating [6, 14]: 100
- Plant response rating, Velvetleaf [6, 15]: 60
- Plant response rating, Velvetleaf [6, 16]: 80
- Plant response rating, Barnyardgrass ([7]; Postemergence, 0 to 100 scale where 0 is no effect and 100 is complete control): 100
- Barnyardgrass plant response rating [7, 14]: 100
- Plant response rating, Barnyardgrass ([7]; Preemergence, 0 to 100 scale, 0 = no effect, 100 = complete control): 40
